pIC50: −log10 of the molar value. Where “and” joins values, the source holds several entries; their conditions need not be identical. Equal entries are not always repeated.
Columns and labels:
[1] = Ulcerogenic activity in fasted albino mouse assessed as average number of ulcers in gastric mucosa at 10 mg/kg, po for 3 days (reference value: 0); type: toxicity, organism-based; details: in vivo, 72 h, time 3 day
[2] = test system: Rattus norvegicus; test: Antiinflammatory activity in Wistar rat model of carrageenan-induced paw edema assessed as reduction in thickness of paw edema at 10 mg/kg, ip pretreated for 1 hr followed by carrageenan challenge and measured after 24 hrs (reference value: 0.83 +/-0.08 mm); type: functional; details: time 25 hrs
[3] = test system: Rattus norvegicus; test: Anti-inflammatory activity in Wistar rat assessed as inhibition of carrageenan-induced paw edema at 10 mg/kg, ip pretreated for 1 hr followed by carrageenan challenge and measured after 24 hr relative to control (reference value: 0.00 +/-0.3 %); type: functional; details: time 25 hrs
[4] = test system: Mus musculus; test: Analgesic activity in albino mouse assessed as protection at 10 mg/kg, ip measured after 120 mins by hot plate test relative to indomethacin; type: functional; details: 2 h
[5] = test system: Rattus norvegicus; test: Antiinflammatory activity in Wistar rat model of carrageenan-induced paw edema assessed as reduction in thickness of paw edema at 10 mg/kg, ip pretreated for 1 hr followed by carrageenan challenge and measured after 4 hrs (reference value: 1.40 +/-0.10 mm); type: functional; details: time 5 hrs
[6] = test system: Candida albicans; test: Antifungal activity against Candida albicans incubated for 18 to 24 hrs by CLSI method; type: functional; details: time 18-24 hrs
[7] = test system: Mus musculus; test: Analgesic activity in albino mouse assessed reduction in acetic acid-induced abdominal writhing by measuring writing reflex at 10 mg/kg, ip pretreated for 1 hr followed by acetic acid challenge and measured starting 5 mins post acetic acid challenge for 10 mins (reference value: 42.4 +/- 1.02); type: functional; details: time 75 min, 1.25 h
[8] = test system: Mus musculus; test: Analgesic activity in albino mouse assessed as forepaw licking/jumping latency time at 10 mg/kg, ip measured after 30 mins by hot plate test (reference value: 5.02 +/- 0.09 sec); type: functional; details: 0.5 h
[9] = Ulcerogenic activity in fasted albino mouse assessed as ulcer index in gastric mucosa at 10 mg/kg, po for 3 days (reference value: 0); type: toxicity, organism-based; details: in vivo, 72 h, time 3 day
[10] = test system: Mus musculus; test: Analgesic activity in albino mouse assessed as protection at 10 mg/kg, ip measured after 60 mins by hot plate test (reference value: 0 %); type: functional; details: 1 h
[11] = test system: Pseudomonas aeruginosa; test: Antibacterial activity against Pseudomonas aeruginosa ATCC 27853 incubated for 18 hrs by agar dilution assay; type: functional
[12] = test system: A549; test: Antiproliferative activity against human A549 cells assessed as inhibition of cell growth after 72 hrs by MTT assay; type: functional, cell-based; details: A549, 72 h
[13] = test system: Mus musculus; test: Analgesic activity in albino mouse assessed as protection at 10 mg/kg, ip measured after 120 mins by hot plate test (reference value: 0 %); type: functional; details: 2 h
[14] = test system: Rattus norvegicus; test: Antiinflammatory activity in Wistar rat model of carrageenan-induced paw edema assessed as reduction in thickness of paw edema at 10 mg/kg, ip pretreated for 1 hr followed by carrageenan challenge and measured after 2 hrs (reference value: 2.06 +/-0.09 mm); type: functional; details: time 3 hrs
[15] = test system: Mus musculus; test: Analgesic activity in albino mouse assessed protection against acetic acid-induced abdominal writhing at 10 mg/kg, ip pretreated for 1 hr followed by acetic acid challenge and measured starting 5 mins post acetic acid challenge for 10 mins relative to control (reference value: 0 %); type: functional; details: time 75 min, 1.25 h
[16] = test system: Rattus norvegicus; test: Antiinflammatory activity in Wistar rat model of carrageenan-induced paw edema assessed as reduction in thickness of paw edema at 10 mg/kg, ip pretreated for 1 hr followed by carrageenan challenge and measured after 1 hr (reference value: 2.41 +/-0.05 mm); type: functional; details: time 1 hr after carrageenan
[17] = test system: Salmonella typhimurium; test: Antibacterial activity against Salmonella typhimurium ATCC 19430 incubated for 18 hrs by agar dilution assay; type: functional, Salmonella enterica subsp. enterica serovar Typhimurium; details: Salmonella enterica
[18] = test system: Rattus norvegicus; test: Anti-inflammatory activity in Wistar rat assessed as inhibition of carrageenan-induced paw edema at 10 mg/kg, ip pretreated for 1 hr followed by carrageenan challenge and measured after 3 hr relative to control (reference value: 0.00 +/-0.1 %); type: functional; details: time 4 hrs
[19] = test system: Rattus norvegicus; test: Antiinflammatory activity in Wistar rat model of carrageenan-induced paw edema assessed as reduction in thickness of paw edema at 10 mg/kg, ip pretreated for 1 hr followed by carrageenan challenge and measured after 3 hrs (reference value: 1.79 +/-0.07 mm); type: functional; details: time 4 hrs
[20] = test system: Mus musculus; test: Analgesic activity in albino mouse assessed as forepaw licking/jumping latency time at 10 mg/kg, ip measured after 90 mins by hot plate test (reference value: 2.72 +/- 0.01 sec); type: functional; details: 1.5 h
[21] = Ulcerogenic activity in fasted albino mouse assessed as incidence of gastric ulceration at 10 mg/kg, po for 3 days (reference value: 0 %); type: toxicity, organism-based; details: in vivo, 72 h, time 3 day
[22] = test system: Mus musculus; test: Analgesic activity in albino mouse assessed as protection at 10 mg/kg, ip measured after 30 mins by hot plate test (reference value: 0 %); type: functional; details: 0.5 h
[23] = test system: Mus musculus; test: Analgesic activity in albino mouse assessed as forepaw licking/jumping latency time at 10 mg/kg, ip measured after 120 mins by hot plate test (reference value: 2.62 +/- 0.06 sec); type: functional; details: 2 h
[24] = Toxicity in albino mouse assessed as induction of toxic symptoms at 50 to 100 mg/kg, ip measured after 24 hrs; type: organism-based; details: in vivo, dose 50-100 mg/kg
[25] = test system: Mus musculus; test: Analgesic activity in albino mouse assessed as protection at 10 mg/kg, ip measured after 90 mins by hot plate test (reference value: 0 %); type: functional; details: 1.5 h
[26] = test system: Splenocyte; test: Immunomodulatory activity in Swiss albino mouse splenocytes assessed as cell viability at 10 uM by measuring inhibition of stimulation index incubated for 72 hrs in presence of mitogenic stimulus phytohaemagglutinin by MTT assay relative to indomethacin; type: functional; details: read-out: Activity
[27] = Ulcerogenic activity in fasted albino mouse assessed as average severity of ulcers in gastric mucosa at 10 mg/kg, po for 3 days (reference value: 0); type: toxicity, organism-based; details: in vivo, 72 h, time 3 day
[28] = test system: Mus musculus; test: Analgesic activity in albino mouse assessed protection against acetic acid-induced abdominal writhing at 10 mg/kg, ip pretreated for 1 hr followed by acetic acid challenge and measured starting 5 mins post acetic acid challenge for 10 mins relative to indomethacin; type: functional; details: time 75 min, 1.25 h
[29] = test system: MCF7; test: Antiproliferative activity against human MCF7 cells assessed as inhibition of cell growth after 72 hrs by MTT assay; type: functional, cell-based; details: MCF7, 72 h
[30] = test system: Peritoneal macrophage; test: Antiinflammatory activity in […] mouse Peritoneal macrophages assessed as reduction in LPS-induced NO production by measuring reduction in stimulation index at 10 uM preincubated for 1 hr followed by LPS stimulation measured after 24 hrs by Griess method (reference value: 27.31 +/- 2.56 uM); type: functional; details: time 25 hrs
[31] = test system: Rattus norvegicus; test: Anti-inflammatory activity in Wistar rat assessed as inhibition of carrageenan-induced paw edema at 10 mg/kg, ip pretreated for 1 hr followed by carrageenan challenge and measured after 4 hr relative to indomethacin; type: functional; details: time 5 hrs
[32] = test system: Rattus norvegicus; test: Anti-inflammatory activity in Wistar rat assessed as inhibition of carrageenan-induced paw edema at 10 mg/kg, ip pretreated for 1 hr followed by carrageenan challenge and measured after 2 hr relative to control (reference value: 0.00 +/-0.03 %); type: functional; details: time 3 hrs
[33] = test system: PC-3; test: Antiproliferative activity against human PC3 cells assessed as inhibition of cell growth after 72 hrs by MTT assay; type: functional, cell-based; details: PC-3, 72 h
[34] = test system: Streptococcus pyogenes; test: Antibacterial activity against Streptococcus pyogenes ATCC 19615 incubated for 18 hrs by agar dilution method; type: functional
[35] = test system: Splenocyte; test: Immunomodulatory activity in Swiss albino mouse splenocytes assessed as cell viability at 10 uM by measuring stimulation index incubated for 72 hrs in presence of mitogenic stimulus phytohaemagglutinin by MTT assay (reference value: 1.00 +/- 0.24); type: functional
[36] = test system: Staphylococcus aureus; test: Antibacterial activity against Staphylococcus aureus ATCC 25923 incubated for 18 hrs by agar dilution method; type: functional
[37] = test system: Rattus norvegicus; test: Anti-inflammatory activity in Wistar rat assessed as inhibition of carrageenan-induced paw edema at 10 mg/kg, ip pretreated for 1 hr followed by carrageenan challenge and measured after 1 hr relative to control (reference value: 0.00 +/-0.02 %); type: functional; details: time 2 hrs
[38] = test system: Rattus norvegicus; test: Anti-inflammatory activity in Wistar rat assessed as inhibition of carrageenan-induced paw edema at 10 mg/kg, ip pretreated for 1 hr followed by carrageenan challenge and measured after 4 hr relative to control (reference value: 0.00 +/-0.4 %); type: functional; details: time 5 hrs
[39] = test system: Peritoneal macrophage; test: Antiinflammatory activity in […] mouse Peritoneal macrophages assessed as inhibition of LPS-induced NO production at 10 uM preincubated for 1 hr followed by LPS stimulation measured after 24 hrs by Griess method relative to control (reference value: 0.0 %); type: functional; design: scale not given: the % may be the effect or the level left; details: time 25 hrs
[40] = test system: Mus musculus; test: Analgesic activity in albino mouse assessed as forepaw licking/jumping latency time at 10 mg/kg, ip measured after 60 mins by hot plate test (reference value: 3.42 +/- 0.03 sec); type: functional; details: 1 h

**Q.** For `COc1cc(/C=C/C(=O)/C=C(O)/C=C/c2ccc(OC(=O)CCN)c(OC)c2)ccc1OC(=O)CCN.Cl.Cl`, which Activity [1] is on record?
**A.** 0

**Q.** And the Activity [2]?
**A.** 0.23 mm

**Q.** What about the inhibition in vivo at 10 mg/kg [3] of the same compound?
**A.** 72%

**Q.** And the Activity [4]?
**A.** 85.5%

**Q.** What about the Activity [5] of the same compound?
**A.** 0.16 mm

**Q.** What about the MIC [6] of the same compound?
**A.** 0.5 µg/mL and 0.857 µM

**Q.** What about the Activity [7] of the same compound?
**A.** 25.6

**Q.** And the Time [8]?
**A.** 5.46 s

**Q.** And the UI [9]?
**A.** 0

**Q.** And the Activity [10]?
**A.** 52%

**Q.** What about the MIC [11] of the same compound?
**A.** 1 µg/mL and 1.71 µM

**Q.** What about the pIC50 [12] of the same compound?
**A.** 4.49

**Q.** And the Activity [13]?
**A.** 35.9%

**Q.** What about the Activity [14] of the same compound?
**A.** 0.6 mm

**Q.** What about the Activity [15] of the same compound?
**A.** 39.6%

**Q.** What about the Activity [16] of the same compound?
**A.** 0.74 mm

**Q.** And the MIC [17]?
**A.** 1 µg/mL and 1.71 µM

**Q.** What about the inhibition in vivo at 10 mg/kg [18] of the same compound?
**A.** 77%

**Q.** What about the Activity [19] of the same compound?
**A.** 0.42 mm

**Q.** And the Time [20]?
**A.** 4.16 s

**Q.** What about the Activity [21] of the same compound?
**A.** 0%

**Q.** What about the Activity [22] of the same compound?
**A.** 8.8%

**Q.** And the Time [23]?
**A.** 3.56 s

**Q.** What about the Activity [24] of the same compound?
**A.** Non-Toxic

**Q.** What about the Activity [25] of the same compound?
**A.** 52.9%

**Q.** And the viability at 10 µM [26]?
**A.** 87.4%

**Q.** And the Activity [27]?
**A.** 0

**Q.** What about the Activity [28] of the same compound?
**A.** 64.3%

**Q.** What about the pIC50 [29] of the same compound?
**A.** 5.03

**Q.** What about the Activity [30] of the same compound?
**A.** 15.93 µM

**Q.** And the inhibition in vivo at 10 mg/kg [31]?
**A.** 102%

**Q.** And the inhibition in vivo at 10 mg/kg [32]?
**A.** 71%

**Q.** And the pIC50 [33]?
**A.** 4.52

**Q.** What about the MIC [34] of the same compound?
**A.** 1 µg/mL and 1.71 µM

**Q.** And the Activity_index [35]?
**A.** 1.39

**Q.** And the MIC [36]?
**A.** 1 µg/mL and 1.71 µM

**Q.** And the inhibition in vivo at 10 mg/kg [37]?
**A.** 69%

**Q.** What about the inhibition in vivo at 10 mg/kg [38] of the same compound?
**A.** 89%

**Q.** What about the Activity [39] of the same compound?
**A.** 41.68%

**Q.** What about the Time [40] of the same compound?
**A.** 5.2 s
